This experiment deals with T1, human GR (glucocorticoid receptor) (Homo sapiens, UniProt P04150).
T1 construct: expressed in transfected cells; host or cells: 293 cells
T1 sequence (P04150 1-777): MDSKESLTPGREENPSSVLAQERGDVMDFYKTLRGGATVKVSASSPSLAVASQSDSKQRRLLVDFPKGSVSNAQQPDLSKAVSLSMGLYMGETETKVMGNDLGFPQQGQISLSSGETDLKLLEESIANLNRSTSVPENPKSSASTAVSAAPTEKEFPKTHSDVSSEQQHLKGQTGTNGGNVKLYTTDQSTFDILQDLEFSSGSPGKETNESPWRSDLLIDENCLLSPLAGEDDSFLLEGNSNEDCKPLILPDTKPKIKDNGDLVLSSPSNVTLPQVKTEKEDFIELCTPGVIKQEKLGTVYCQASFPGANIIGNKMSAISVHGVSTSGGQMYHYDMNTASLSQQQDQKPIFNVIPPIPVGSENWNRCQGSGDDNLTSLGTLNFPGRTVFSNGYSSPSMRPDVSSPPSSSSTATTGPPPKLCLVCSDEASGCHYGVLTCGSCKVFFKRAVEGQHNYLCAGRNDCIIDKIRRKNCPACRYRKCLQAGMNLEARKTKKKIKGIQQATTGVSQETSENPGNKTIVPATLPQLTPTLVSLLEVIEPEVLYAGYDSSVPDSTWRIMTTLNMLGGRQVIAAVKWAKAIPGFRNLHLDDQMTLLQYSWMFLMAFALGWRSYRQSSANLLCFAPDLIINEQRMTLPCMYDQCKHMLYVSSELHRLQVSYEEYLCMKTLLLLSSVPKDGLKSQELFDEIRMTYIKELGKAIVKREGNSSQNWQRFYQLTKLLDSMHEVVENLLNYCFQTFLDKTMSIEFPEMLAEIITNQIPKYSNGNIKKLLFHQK
Description: Alternative Binding Assay Protocol (Method 2), GR. The note with it: 293-GR lysate, 3H-dexamethasone. On the procedure:
Cell lysates from 293 cells overexpressing human GR (glucocorticoid receptor), AR (androgen receptor), MR (mineralocorticoid receptor) or PR (progesterone receptor) are used for competition binding assays to determine Ki values for test compounds. Briefly, competition binding assays are run in a buffer containing 20 mM Hepes, pH 7.6, 0.2 mM EDTA, 75 mM NaCl, 1.5 mM MgCl2, 20% glycerol, 20 mM sodium molybdate, 0.2 mM DTT, 20 ug/ml aprotinin and 20 ug/ml leupeptin, using either 0.3 nM ^3H-dexamethasone for GR binding, 0.36 nM ^3H-methyltrienolone for AR binding, 0.25 nM ^3H-aldosterone for MR binding, or 0.29 nM ^3H-methyltrienolone for PR binding, and either 20 ug 293-GR lysate, 22 ug 293-AR lysate, 20 ug 293-MR lysate or 40 ug 293-PR lysate per well. Competing compounds are added at various concentrations in half-log increments. Non-specific binding is determined in the presence of 500 nM dexamethasone for GR binding, 500 nM aldosterone for MR binding, or 500 nM methyltrienolone for AR and PR binding. The binding reaction (140 μl) is incubated for overnight at 4° C., then 70 μl of cold charcoal-dextran buffer (containing per 50 ml of assay buffer, 0.75 g of charcoal and 0.25 g of dextran) is added to each reaction. Plates are mixed 8 minutes on an orbital shaker at 4° C. Plates are then centrifuged at 3,000 rpm at 4° C. for 10 minutes. An aliquot of 120 μl of the mix is transferred to another 96-well plate and 175 μl of Wallac Optiphase “Hisafe 3” scintillation fluid is added to each well. Plates are sealed and shaken vigorously on an orbital shaker. After an incubation of 2 hrs, plates are read in a Wallac Microbeta counter. The data is used to calculate an IC50 and % Inhibition at 10 μM. The Kd for ^3H-dexamethasone for GR binding, ^3H-methyltrienolone for AR binding, ^3H-aldosterone for MR binding, or ^3H-methyltrienolone for PR binding, is determined by saturation binding. The IC50 values for compounds are converted to Ki using Cheng-Prusoff equation and the Kd determined by saturation binding assay.

The record followed here is patent US20070037788A1, “Tricyclic steroid hormone nuclear receptor modulators” (Eli Lilly and Company, priority 2003, published 2007).

In general, Ki refers to a dissociation constant, usually derived from enzyme kinetics or from competition with a known ligand.

Molecules are shown by their SMILES.

`O=c1[nH]c2cc(/C=C3/c4ccc(F)cc4OCc4c(F)cccc43)ccc2n1[C@H]1CCNC1` [Example 37] showed a Ki below 500 nM.
